For data set [1] the following is noted: Struck et al., J. Med. Chem., 9, 414-416 (1966); cited from earlier work.
Data set [2] concerns mammary adenocarcinoma 16/c. Particulars: positive control, general statement; cited from earlier work.
The subject of data set [3] is mammary adenocarcinoma 16/c. Briefly: sc mammary adenocarcinoma 16/c tumor model. Type of data set: in vivo, mice (C3H). Particulars: q4D × 5, 6 mg/kg; for Inhibition: Day 21. The method, then:
In this experiment, the tumor was implanted sc in C3H mice, and the drug was administered ip or iv on an intermittent treatment schedule, i.e., once on days 1, 5, 9, 13 and 17. Tumors were measured 3 weeks after implantation, and activity was assessed by degree of tumor growth inhibition.
*N.P. = Proportion of mice without palpable tumors on Day 21

The subject of data set [4] is M5076 reticulum cell sarcoma. Particulars: positive control, general statement; cited from earlier work.
A further data set deals with P388 leukemia. Briefly: ip P388 leukemia mouse model. Particulars: for MTD (maximally tolerated dose): B6D2F female mice, ip qDX5; for ILS max (maximum increase in lifespan): mice bearing ip P388 leukemia, ip days 1-5 at MTD, slash-separated figures are separate experiments. The class given is in vivo, mice (B6D2F1). The method, then: This tumor system is widely accepted as an antitumor agent screening tool because it is sensitive to virtually all of the clinically active antineoplastic agents; quantitative and reproducible; amenable for large-scale screening; and predictive for activity in other animal tumor models.
10^6 P388 leukemia cells are inoculated ip in B6D2F1 mice. Twenty-four hours later, if the tumor inoculum proves to be free of bacterial contamination (as determined by 24 hours incubation in thioglycollate broth), animals are randomized into groups of 6 and housed in shoebox cages. […] An equal volume of saline or water is added; if the drug comes out of solution an equal volume of Cremophor (polyethoxylated castor oil) is added and then saline or water, as to a concentration such that the desired dose is delivered in 0.5 ml. The final concentration of DMA, ethanol or Cremophor is 10 percent. Dilutions for lower doses are made with saline or water so that there is a decreasing proportion of organic solvents in the vehicle with decreasing dosage. […] Formulations are prepared immediately prior to injection. The Formula (I) and Formula (II) compounds are administered ip on Days 1 through 5 (i.e., treatment is initiated 24 hrs after tumor inoculation). Each experiment includes three groups of 6 animals as untreated controls and animals treated with a positive control, cisplatin, at two dose levels. Animals are weighed as a group on Days 1, 5 and 9 and average weight change (Δwt.) is used as a reflection of toxicity. Each experiment also includes an inoculum titration--groups of 8 mice inoculated ip with 10^5 to 10^0 P388 leukemia cells. The titration is used as a quality control check for the performance of the tumor model. Animals are monitored daily for mortality and experiments are terminated after 45 days. The endpoint is median survival time (MST) and increase in lifespan (ILS) which is the percentage of increase in MST relative to untreated controls.

The test system of data set [5] is M5076 reticulum cell sarcoma. Nature of the data set: ip M5076 reticulum cell sarcoma in mice. The class given is in vivo, mice (B6D2F female). Particulars: for MTD (maximally tolerated dose): B6D2F female mice, ip qDX10; for ILS max (maximum increase in lifespan): mice bearing ip M5076, ip qDX10 at MTD, slash-separated figures are separate experiments. How it is done: Another tumor model used for evaluation of tumor growth inhibiting drugs is intraperitoneally implanted M5076 reticulum cell sarcoma in mice. […] Drugs are administered ip. Daily treatment is begun 24 hours after implantation and is continued for ten days. The treatment regimen for M5076 is more prolonged than for P388 because of the slower growth rate and longer control survival time of the M5076 tumor. Compounds of Formula (I) and Formula (II) were evaluated in this assay. An evaluation of several compounds of Formula (I) in the M5076 reticulum cell sarcoma assay at their maximally tolerated dose (MTD) is set forth in Table III. An ILS of ≥25% indicates activity in this tumor model.
^(b) maximally tolerated dose for B6D2F female mice on an ip qDX10
^(c) maximum increase in lifespan produced in mice bearing ip M5076

The next data set concerns B16 melanoma. Briefly: in vivo ip B16 melanoma assay. The arrangement: species or system mice (B6D2F1). Particulars: ip qDX10; for MTD (maximally tolerated dose): B6D2F1 mice; for ILS (maximum increase in lifespan): mice bearing ip B16 melanoma, slash-separated figures are separate experiments. How it is done:
Daily treatment is begun 24 hours after tumor implantation and is continued daily for ten (10) days. The route of drug administration is ip. The mice are monitored daily for survival for sixty (60) days. Antitumor activity is assessed by prolongation of median survival time. An ILS of ≥25% indicates activity in this tumor model.
^(b) maximally tolerated dose for B6D2F1 mice on an ip qDX10
^(c) maximum increase in lifespan produced in mice bearing ip B16

The test system of another data set is B16 melanoma cells. Nature of the data set: B16 melanoma cell assay, clonogenic capacity in vitro after two-hour exposure. The class given is cell-based. The conditions noted are these: 2-hour exposure; read-out: IC50: concentration which inhibits cloning efficiency of B16 melanoma cells by 50%. How it is done: The B16 melanoma cell assay measures the ability of a compound to inhibit the clonogenic capacity of cells in vitro following a two-hour exposure to the compound.
B16 melanoma (highly metastatic subline, F10) are used and maintained as monolayer cultures in Minimal Essential Media (Grand Island Biological Col., Grand Island, N.Y.) supplemented with 10% calf serum, 1% antibiotics in a 5% CO2 humidified incubator at 37° C. Asynchronous populations of cells are harvested and replated to 5000 cells/plate in sterile 60 mm×15 mm petri plates. Plates are incubated overnight to allow attachment of the cells to the plate. Cells are treated with a Formula (I) or Formula (II) compound/under sterile conditions, allowed to react for 2 hours followed by aspiration of medium. Plates are washed one time with 5 ml of phosphate buffered saline (PBS), followed by the addition of 5 ml of fresh medium. Plates are incubated for 5 days at 37° C. in a CO2 incubator. Viability is measured by the ability of a cell to form a colony of greater than 50 cells. Colonies are fixed with 0.5% crystal violet in 95% ethanol. Plates are dried and counted with a Biotran III Automatic Count Totalizer (New Brunswick Scientific Co., Edison, N.J.). Mean and standard deviation of triplicate samples are determined for each drug concentration. The data are analyzed plotting the log of the survival fraction (number of colonies in drug treated plates/number of colonies in controls) versus the drug concentration.
^a Concentration which inhibits cloning efficiency of B16 melanoma
cells by 50% on a 2hour exposure

The conditions of data set [6]: 15 h.
Description: Such solubility was determined as follows: The compound in question was dissolved or suspended in absolute ethanol (250 mg solid per 1.0 ml ethanol). To the resulting solution or suspension, water (9.0 times the volume of ethanol) was added. This suspension was stirred vigorously for 15 hours, then filtered through a 0.45 μm poly(tetrafluoroethylene) (PTFE) filter. […] The HPLC system was as follows:
Column PLRP-S, 5μm, obtained from Polymer Laboratories, Inc.
Mobile Phase 9:1 acetonitrile:0.1% tetra-n-butylammonium hydrogen sulfate (50° C., 1.0 ml-min-^-1)
Detection Ultraviolet (250 nm)

Values joined by “and” are separate entries in the source; they are usually repeats but may differ in a detail not shown here. Equal values may be shown once.

With `c1ccc(P(CCP(c2ccccc2)c2ccccc2)c2ccccc2)cc1` [1,2-bis(diphenyl-phosphino)ethane], the “cytotoxic activity (in words)” value in data set [1] is reported as “cytotoxic activity”.
A word on the Inhibition: it is the relative decrease from the control value, in per cent. Regarding `N.N.[Cl][Pt][Cl]` [Cisplatin, reference compound], in [2], the “inhibition of the growth of mammary adenocarcinoma 16/c (in words)” value is given as “complete inhibition”. The “Mean Tumor Volume on Day 21” value is 30 ± 64 mm^3 in data set [3] (Experiment 1, ip); 0 mm^3 in [3] (Experiment 2, ip); 21 ± 61 mm^3 in [3] (Experiment 2, iv); 586 ± 266 mm^3 in [3] (Experiment 3, ip). In addition, the “N.P. (proportion of mice without palpable tumors on Day 21)” value in [3] (Experiment 1, ip) was 6/8; in data set [3] (Experiment 2, ip) it was 8/8; in data set [3] (Experiment 2, iv) it was 7/8; in data set [3] (Experiment 3, ip) it was 0/8. Besides, the Inhibition is 97% in data set [3] (Experiment 1, ip); 100% in [3] (Experiment 2, ip); 98% in data set [3] (Experiment 2, iv); 37% in data set [3] (Experiment 3, ip). The “tumor growth inhibition (in words)” value in data set [4] is on record as “complete tumor growth inhibition”.
As to `[Au+].[Cl-].c1ccc(P(CCCP(c2ccccc2)c2ccccc2)c2ccccc2)cc1.c1ccc(P(CCCP(c2ccccc2)c2ccccc2)c2ccccc2)cc1` [compound 4, Bis[1,3-Bis(diphenylphosphino)propane]Gold(I) Chloride], in the data set on P388 leukemia, the “MTD (maximally tolerated dose)” value worked out at 3 mg/kg and the “ILS max (maximum increase in lifespan)” value stood at 89 ± 28%. Further, in data set [5], the “MTD (maximally tolerated dose)” value was 2 mg/kg and the “ILS max (maximum increase in lifespan)” value was 116%. Moreover, in the data set on B16 melanoma, the “MTD (maximally tolerated dose)” value amounted to 2 mg/kg; the “ILS (maximum increase in lifespan)” value was 34% and 28% and 40%. The IC50 with B16 melanoma cells was 600 nM.
As for `CCP(CC)CCP(c1ccccc1)c1ccccc1.CCP(CC)CCP(c1ccccc1)c1ccccc1.[Au+].[Cl-]` [compound 8], in the data set on P388 leukemia, the “MTD (maximally tolerated dose)” value is 3 mg/kg and the “ILS max (maximum increase in lifespan)” value was found to be 54 ± 16%. Moreover, in data set [5], the “MTD (maximally tolerated dose)” value is on record as 2 mg/kg and the “ILS max (maximum increase in lifespan)” value is 46%.
On to `C1=C[PH](c2ccccc2)(c2ccccc2)[Cu+]2([PH]1(c1ccccc1)c1ccccc1)[PH](c1ccccc1)(c1ccccc1)C=C[PH]2(c1ccccc1)c1ccccc1.[Cl-]` (stereo not drawn) [compound 13, Bis[cis-1,2-bis(diphenylphosphino)ethylene]Copper(I) Chloride], for which, in the data set on P388 leukemia, the “MTD (maximally tolerated dose)” value was 3 mg/kg and the “ILS max (maximum increase in lifespan)” value was determined as 70 ± 23%. In data set [5], the “MTD (maximally tolerated dose)” value is recorded as 2 mg/kg and the “ILS max (maximum increase in lifespan)” value is given as 40%. For the same molecule, in the data set with B16 melanoma, the “MTD (maximally tolerated dose)” value was determined as 0.75 mg/kg and the “ILS (maximum increase in lifespan)” value was 42%.
Turning to `O=C([O-])C(O)CO.[Au+].c1ccc(P(CCP(c2ccccc2)c2ccccc2)c2ccccc2)cc1.c1ccc(P(CCP(c2ccccc2)c2ccccc2)c2ccccc2)cc1` [compound 25, Bis[1,2-bis(diphenylphosphino)ethane]gold(I) DL-2,3-dihydroxypropanoate], in the data set with P388 leukemia, the “MTD (maximally tolerated dose)” value is listed as 2 mg/kg; the “ILS max (maximum increase in lifespan)” value is 55% and 65%. Besides, in [6], the “Solubility in 9:1 Water:Ethanol” value came to 2200 µg/mL. For the same molecule, in the data set with B16 melanoma, the “MTD (maximally tolerated dose)” value is listed as 0.75 mg/kg and the “ILS (maximum increase in lifespan)” value is 28%.
Turning to “Bis[1,2-bis(diphenylphosphino)ethane]Silver(I) Nitrate [compound 2]”, the “MTD (maximally tolerated dose)” value was 3 mg/kg in the data set with P388 leukemia and 2 mg/kg in [5]. The “ILS max (maximum increase in lifespan)” value in the data set on P388 leukemia was 89% and 90%; in data set [5], 48%. Besides, the IC50 in the data set with B16 melanoma cells was determined as 4000 nM.
Consider “Bis[cis-1,2-bis(diphenylphosphino)ethylene]Gold(I) Chloride [compound 3]”, for which the entries for the “MTD (maximally tolerated dose)” value (in the data set on P388 leukemia; in data set [5]; in the data set with B16 melanoma) were 2 mg/kg, 2.4 mg/kg and 1.5 mg/kg, respectively. Further, the “ILS max (maximum increase in lifespan)” value in the data set on P388 leukemia was 92 ± 26%; in data set [5], 69%. Besides, in the data set on B16 melanoma, the “ILS (maximum increase in lifespan)” value came to 35%. The IC50 with B16 melanoma cells was determined as 2000 nM.
“Tris[1,2-bis(diphenylphosphino)ethane]Dicopper(I) Chloride”: in the data set with P388 leukemia, the “MTD (maximally tolerated dose)” value was 2 mg/kg; the “ILS max (maximum increase in lifespan)” value was 100% and 115%. Also, in data set [5], the “MTD (maximally tolerated dose)” value is reported as 1.6 mg/kg and the “ILS max (maximum increase in lifespan)” value turned out to be 60%. In addition, in the data set on B16 melanoma, the “MTD (maximally tolerated dose)” value is 1 mg/kg and the “ILS (maximum increase in lifespan)” value is listed as 54%.

Values taken from patent US5037812A, “Tumor cell growth-inhibiting pharmaceutical compositions containing phosphino-hydrocarbon-gold, silver or copper complexes” (priority 1986, dated 1991).
